# Test results published in BindingDB's records for doi:10.1016/s0960-894x(01)00278-5 (Pharmacia, 2001).
# Assay: Binding affinity towards guinea pig Opioid receptor kappa 1 using radioligand [3H]U69,593
row,SMILES,Ki [µM]
1,"CN(C)C(=O)c1ccc2c3c1OC1C(O)C=C[C@H]4[C@@H](C2)N(C)CC[C@]314 (stereo partly drawn) [4,10N,10N-trimethyl-14-hydroxy-(1S,5R,17R)-12-oxa-4-azapentacyclo[9.6.1.01,13.05,17.07,18]octadeca-7,9,11(18),15-tetraene-10-carboxamide]",> 10
2,"CNC(=O)c1ccc2c3c1OC1C(O)C=C[C@H]4[C@@H](C2)N(C)CC[C@]314 (stereo partly drawn) [4,10N-dimethyl-14-hydroxy-(1S,5R,17R)-12-oxa-4-azapentacyclo[9.6.1.01,13.05,17.07,18]octadeca-7,9,11(18),15-tetraene-10-carboxamide]",> 10
3,"CN1CC[C@]23c4c5ccc(C(N)=O)c4OC2C(O)C=C[C@H]3[C@H]1C5 (stereo partly drawn) [14-hydroxy-4-methyl-(1S,5R,17R)-12-oxa-4-azapentacyclo[9.6.1.01,13.05,17.07,18]octadeca-7,9,11(18),15-tetraene-10-carboxamide]",1.9
